Measurements from patent US6521446B2, “Biosensor” (Duke University, priority 1997, dated 2003).

Legend:
[1] = Glucose binding, titration followed by fluorescence change of the conjugated fluorophore
Experimental: (§1) Measurement of Glucose and Galactose Binding. Sugar binding was determined by measuring changes in fluorescence of the conjugated fluorophores on a SLM-Aminco-Bowman series-2 fluorimeter at 25±1° C. Glucose or galactose (Sigma) was titrated into a 50 nM conjugated protein solution in 0.1 M NaCl, 50 mM phosphate (pH 7.0), which was continuously mixed with a magnetic stirrer. For titrations, the excitation and emission slit widths were set to 4 and 16 nm, respectively (IANBD:λex=469 nm, λcm=540 nm; acrylodan: λex=392 nm, λem=520 nm). Under these conditions the instrument noise was <1% of the fluorescence signal observed in saturating solutions of glucose. Experimentally observed binding curves were fit to a binding isotherm:
(§2) where ΔF is the change in fluorescence, ΔFmax the fluorescence change at saturating concentrations of ligand, Kd the binding constant, and S the concentration of ligand.

[2] = Sugar binding Kd of mutant proteins: D-Mannose; settings: Table 2, binding-site mutants
Experimental: as §1, with “Glucose or galactose (Sigma) was titrated into a 50 nM conjugated protein solution in 0.1 M NaCl, 50 mM phosphate (pH 7.0), which was continuously mixed with a magnetic stirrer.” left out
as §2
(§3) (Primary binding surface in E. coli GBP: Asn14, Asn91, His152, Asp154, Arg158, Asn211, Asp236, Asn256; secondary binding surface in E coli GBP: Tyr10, Phe16, Met17, Asn66, Ser112, Ser115, Trp183, Asn210, Met214, Gln261, Tyr295). In order to change the binding constant for glucose, residues in both surfaces have been systematically mutated, either singly or in pairs. The Asp154Ala, Trp183Ala (D154A+W183A) double mutant has a binding constant of 7.2 mM. The dynamic range is thus matched for operating in physiologically relevant glucose concentration ranges.

[3] = Sugar binding Kd of mutant proteins: L-Arabinose; settings: Table 2, binding-site mutants
Experimental: as §1, with “Glucose or galactose (Sigma) was titrated into a 50 nM conjugated protein solution in 0.1 M NaCl, 50 mM phosphate (pH 7.0), which was continuously mixed with a magnetic stirrer.” left out
as §2, §3

[4] = Galactose binding, titration followed by fluorescence change of the conjugated fluorophore
Experimental: as §1, §2

[5] = Sugar binding Kd of mutant proteins: D-Fucose; settings: Table 2, binding-site mutants
Experimental: as §1, with “Glucose or galactose (Sigma) was titrated into a 50 nM conjugated protein solution in 0.1 M NaCl, 50 mM phosphate (pH 7.0), which was continuously mixed with a magnetic stirrer.” left out
as §2, §3

[6] = Sugar binding Kd of mutant proteins: D-Fructose; settings: Table 2, binding-site mutants
Experimental: as §1, with “Glucose or galactose (Sigma) was titrated into a 50 nM conjugated protein solution in 0.1 M NaCl, 50 mM phosphate (pH 7.0), which was continuously mixed with a magnetic stirrer.” left out
as §2, §3

[7] = Fluorescence of glucose-saturated GBP conjugate relative to apoprotein; assay type: binding
Experimental: as §1, with “isotherm: […]” for “isotherm:”

[8] = Sugar binding Kd of mutant proteins: Maltose; settings: Table 2, binding-site mutants
Experimental: as §1, with “Glucose or galactose (Sigma) was titrated into a 50 nM conjugated protein solution in 0.1 M NaCl, 50 mM phosphate (pH 7.0), which was continuously mixed with a magnetic stirrer.” left out
as §2, §3

[9] = Sugar binding Kd of mutant proteins: D-Xylose; settings: Table 2, binding-site mutants
Experimental: as §1, with “Glucose or galactose (Sigma) was titrated into a 50 nM conjugated protein solution in 0.1 M NaCl, 50 mM phosphate (pH 7.0), which was continuously mixed with a magnetic stirrer.” left out
as §2, §3

[10] = Sugar binding Kd of mutant proteins: Lactose; settings: Table 2, binding-site mutants
Experimental: as §1, with “Glucose or galactose (Sigma) was titrated into a 50 nM conjugated protein solution in 0.1 M NaCl, 50 mM phosphate (pH 7.0), which was continuously mixed with a magnetic stirrer.” left out
as §2, §3

[11] = Table 2, binding-site mutants, read-out: Kd, D-Glucose
[12] = Table 2, binding-site mutants, read-out: Kd, D-Galactose
[13] = IANBD conjugate, read-out: Kd(Glc)
[14] = acrylodan conjugate, read-out: Kd(Glc)
[15] = IANBD conjugate, read-out: Kd(Gal)
[16] = acrylodan conjugate, read-out: Kd(Gal)
[17] = IANBD conjugate, relative to wild-type
[18] = mutants in the allosterically signaling construct 255C, read-out: binding constant for glucose

With “D14A: E. coli GBP binding-site mutant at position 14” the Kd [1, 11] was 290 µM, the Kd [2] was 26000 µM and the Kd [3] was 7250 µM. For the same substance, the Kd [4, 12] was 390 µM.
“D154A W183A: E. coli GBP double mutant in a 255C background” showed a Kd ([1]; 255C background, read-out: binding constant) of 7200 µM, a Kd [1, 11] of 7200 µM and a Kd ([1]; glucose, read-out: binding constant) of 7200 µM.
Substance D154A: E. coli GBP binding-site mutant has a Kd [1, 11] of 11.5 µM, a Kd [5] of 140 µM and a Kd [2] of 1550 µM. The Kd [3] was 2200 µM, the Kd [6] was 24000 µM and the Kd [4, 12] was 41 µM.
In the case of “D257C: E. coli GBP single cysteine mutant in the hinge region, fluorophore conjugated”, the “R: ratio of fluorescence of fully saturated GBP (10 mM glucose) to apoprotein” value (“R: ratio” below) ([7]; IANBD conjugate) is reported as 1.6, the “R: ratio” value ([7]; acrylodan conjugate) is reported as 0.8 and the Kd [1, 13] is reported as 0.8 µM. It also gave a Kd [1, 14] of 0.5 µM, a Kd [4, 15] of 1.5 µM and a Kd [4, 16] of 0.5 µM.
Work on F16Y: E. coli GBP binding-site mutant yielded a Kd [1, 11] of 500 µM, a Kd [5] of 6000 µM and a Kd [4, 12] of 1160 µM.
In the case of “H152C: E. coli GBP single cysteine mutant in the binding pocket, nonallosteric reporter site, conjugated to IANBD or acrylodan”, the increase in fluorescence ([7]; IANBD conjugate) is reported as 4 fold, the “R: ratio” value ([7]; IANBD conjugate) is reported as 4.0 and the “R: ratio” value ([7]; acrylodan conjugate) is reported as 1.0. The “increase in the binding constant for glucose” value [1, 17] was ~100 fold, the Kd [1, 13] was 20 µM and the “increase in the binding constant for galactose” value [4, 17] was ~500 fold. For the same substance, the Kd [4, 15] was 160 µM.
With “L255C: E. coli GBP single cysteine mutant in the hinge region of the allosteric flap; allosterically signaling construct 255C” the “R: ratio” value ([7]; IANBD conjugate) was 0.8, the “R: ratio” value ([7]; acrylodan conjugate) was 0.5 and the Kd [1, 13] was 0.32 µM. For the same substance, the Kd [1, 14] was 0.43 µM, the Kd [1, 18] was 0.2 µM and the Kd [4, 15] was 0.49 µM. The Kd [4, 16] was 0.62 µM.
With “N15C: E. coli GBP single cysteine mutant in the binding pocket, nonallosteric reporter site, conjugated to IANBD or acrylodan” the “R: ratio” value ([7]; IANBD conjugate) was 0.8, the “R: ratio” value ([7]; acrylodan conjugate) was 0.7 and the Kd [1, 13] was 0.13 µM. For the same substance, the “effect on the sugar binding constants” value ([1]; acrylodan and IANBD conjugates at the 15 position) was “do not greatly perturb the sugar binding constants”, the Kd [1, 14] was 0.17 µM and the Kd [4, 15] was 0.1 µM. The Kd [4, 16] was 0.15 µM.
With N91A: E. coli GBP binding-site mutant the Kd [1, 11] was 150 µM, the Kd [5] was 1230 µM and the Kd [2] was 16000 µM. It also gave a Kd [4, 12] of 1080 µM.
In the case of “P294C: E. coli GBP single cysteine mutant in the hinge region, fluorophore conjugated”, the “R: ratio” value ([7]; IANBD conjugate) is reported as 1.0, the “R: ratio” value ([7]; acrylodan conjugate) is reported as 0.9 and the Kd [1, 14] is reported as 1 µM. The Kd [4, 16] was 1 µM.
For “S112A S115A: E. coli GBP binding-site double mutant”, the Kd [1, 11] was 9 µM, the Kd [2] was 1400 µM and the Kd [8] was 3300 µM. It also gave a Kd [3] of 1100 µM and a Kd [4, 12] of 33 µM.
S112A: E. coli GBP binding-site mutant gave a Kd [1, 11] of 7.2 µM, a Kd [9] of 4200 µM and a Kd [2] of 670 µM. The Kd [3] was 870 µM, the Kd [6] was 15000 µM and the Kd [4, 12] was 24.5 µM.
For “V296C: E. coli GBP single cysteine mutant in the hinge region, fluorophore conjugated”, the “R: ratio” value ([7]; IANBD conjugate) was 0.7, the “R: ratio” value ([7]; acrylodan conjugate) was 1.0 and the Kd [1, 13] was 0.1 µM. It also gave a Kd [4, 15] of 0.3 µM.
With “W183A: GBP single mutant constructed in the allosterically signaling construct 255C” the Kd [1, 18] was 20 µM.
Work on “W183AY10A: GBP double mutant constructed in the allosterically signaling construct 255C” yielded a Kd [1, 18] of 650 µM.
In the case of “Wild-type: wild type E. coli Glucose/Galactose Binding Protein (GBP) [reference compound]”, the Kd ([1]; wild type GBP, read-out: Kd (glucose)) is reported as 0.8 µM, the Kd [5] is reported as 340 µM and the Kd [9] is reported as 1400 µM. It also gave a Kd [2] of 105 µM, a Kd [10] of 1300 µM and a Kd [8] of 400 µM. It also gave a Kd [3] of 90 µM, a Kd [6] of 4700 µM and a Kd [4, 12] of 2.4 µM.
“Y10A D154A: E. coli GBP binding-site double mutant” gave a Kd [1, 11] of 1050 µM and a Kd [4, 12] of 4400 µM.
Work on “Y10A: E. coli GBP binding-site mutant, constructed in the 255C construct” yielded a Kd [1, 11] of 54 µM, a Kd [1, 18] of 50 µM and a Kd [2] of 7100 µM. For the same substance, the Kd [3] was 2700 µM, the Kd [6] was 22000 µM and the Kd [4, 12] was 180 µM.
For “acrylodan conjugate at position 255: acrylodan conjugate of the L255C GBP mutant, best allosteric signal transducer in the hinge region”, the “decrease in fluorescence upon ligand binding” value ([7]; acrylodan conjugate) was 2 fold.
